Key:
[1] = test system: NJ6 and NJ6-sd1 rice plants; test: 15N uptake analysis (root 15NH4+ uptake rate) in rice plants treated with GA and/or PAC; type: in vivo; conditions: FIG. 4a; for 15NH4+ uptake rate: 100 μM GA (GA3) and/or 2 μM paclobutrazol (PAC)
From the text: (§1) Data shown as mean±s.e.m. (n=9). b, Relative root mRNA abundance in plants treated with GA and/or paclobutrazol (PAC). Data shown as mean±s.e.m. (n=3). c, Extent of ChIP-PCR OsGRF4-mediated enrichment of GCGG-containing promoter fragments from OsAMT1.1 (fragment 5) and OsGS1.2 (fragment 2) (shown in FIG. 2i) varies in response to treatment with GA and/or PAC. Data shown as mean±s.e.m. (n=3). d, BiFC assays reveal mutual interactions between SLR1, OsGRF4 and OsGIF1 in nuclei of tobacco leaf epidermal cell nuclei. Scale bar, 60 μm. e, Co-IP experiments with Flag-tagged SLR1 and HA-tagged OsGRF4 or HA-tagged OsGIF1. f, FRET images. Donor group: OsGIF1-CFP only; Acceptor group: OsGRF4-YFP only; FRET groups: OsGIF1-CFP and OsGRF4-YFP with and without SLR1. Scale bar, 200 μm. g, Mean N-FRET data for OsGIF1-CFP and OsGRF4-YFP channels. Data shown as mean±s.e.m. (n=6). […] OsGRF4-activated promotion of pOsAMT1.1 and pOsGS1.2 promoter::Luciferase fusion constructs is enhanced by OsGIF1 and inhibited by SLR1. Data shown as mean±s.e.m. (n=6). Statistical analyses used Duncan's multiple range tests, the same lowercase letter denotes non-significant difference between means (P>0.05; panels a-c, and i).
Hydroponic culture conditions were modified from those of Liu (2004)^32. Seeds were disinfected in 20% sodium hypochlorite solution for 30 min, thoroughly washed with deionized water, and then germinated in moist Perlite. 7-day-old seedlings were then selected and transplanted to PVC pots containing 40 L+N nutrient solution (1.25 mM NH4NO3, 0.5 mM NaH2PO4·2H2O, 0.75 mM K2SO4, 1 mM CaCl2), 1.667 mM MgSO4.7H2O, 40 μM Fe-EDTA (Na), 19 μM H3BO3, 9.1 μM MnSO4·H2O, 0.15 μM ZnSO4·7H2O, 0.16 μM CuSO4, and 0.52 μM […], pH 5.5). […]
Following growth in hydroponic culture for 4 weeks, rice root ^15NO3^− and ^15NH4^+ influx measurements were as described elsewhere^37,38. […] Roots and shoots were dried overnight at 80° C., and the ^15N content was measured using the Isoprime 100 (Elementar, Germany).

[2] = test system: OsAMT1.1 and OsGS1.2 mRNA; test: qRT-PCR relative root mRNA abundance in plants treated with GA and/or PAC; type: in vivo, rice; conditions: FIG. 4b
From the text: as §1
Total RNAs were extracted from different rice plant organs using the TRIzol reagent (Invitrogen), and then treated with RNase-free DNase I (Invitrogen) according to the manufacturer's protocol. […]

[3] = test system: OsAMT1.1 and OsGS1.2 promoters; test: ChIP-PCR OsGRF4-mediated enrichment of GCGG-containing promoter fragments; type: in vivo, rice; conditions: treated with GA and/or PAC; FIG. 4c
From the text: as §1, with “Statistical analyses used Duncan's multiple range tests, the same lowercase letter denotes non-significant difference between means (P>0.05; panels a-c, and i).” left out
˜2 g of two-week-old seedlings of transgenic p35S::flag-OsGRF4^ngr2 rice plants were fixed with 1% formaldehyde under vacuum for 15 min at 20-25° C., and then homogenized in liquid nitrogen. […] The reverse-crosslinked and precipitated DNA then served as template for quantitative RT-PCR.

Glutamine synthase = Glutamine synthase (GS) activity in roots and shoots of treated rice plants; type: in vivo; conditions: roots and shoots of 2-week-old rice plants; 100 μM GA (GA3); FIG. 13
Protocol: Data shown as mean±s.e.m. (n=3). b, GS activities in shoots of plants treated with 100 μM GA (GA3) and/or 2 μM paclobutrazol (PAC), genotypes as indicated. Data shown as mean±s.e.m. (n=3).
Glutamine synthase and nitrate reductase activities were respectively determined with the Glutamine Synthetase Kit (Solarbio LIFE SCIENCES, BC0910) and the Nitrate Reductase Kit (Solarbio LIFE SCIENCES, BC0080) following the manufacturer's instructions.

[4] = test system: pOscycA1;1 and pOscdc2Os-3 promoters; test: Transient transactivation assay (promoter::Luciferase) in rice protoplasts; type: cell-based; conditions: FIG. 5f
From the text: Data shown as mean±s.e.m. (n=3). Abundances expressed relative to the level in NJ6-sd1. b, ChIP-PCR assays. Diagram depicts the OsPsbS1, OsTPS1 and OsSWEET11 promoters and regions used for ChIP-PCR. c, Transactivation assays. Data shown as mean±s.e.m. (n=9). d, Relative abundances of mRNAs transcribed from cell-cycle regulatory genes. Data shown as mean±s.e.m. (n=3). Abundances expressed relative to the level in NJ6-sd1. e, ChIP-PCR assays. Diagram depicts the OscycA1.1 and Oscdc2Os-3 promoters and regions used for Chl P-PCR. f, Transactivation assays. Data shown as mean±s.e.m. (n=12). Statistical analyses used Duncan's multiple range tests, the same lowercase letter denotes a non-significant difference between means (P>0.05).
˜3-kb DNA promoter fragments from each of OsAMT1.1, OsAMT1.2, OsGS1.2, OsGS2, OsNADH-GOGAT2, OsFd-GOGAT, OsCAB1, OsTPS1, OsSWEET11, OscycA1;1 or Oscdc2Os-3 were amplified from NJ6, and then subcloned into a pUC19 vector containing the firefly LUC reporter gene driven by the 35S minimal TATA box and 5×GAL4 binding elements, thus generating reporter plasmids containing specific promoters fused to LUC. The full-length OsGRF4 cDNA was amplified and fused to sequence encoding GAL4BD, thus generating the effector plasmid pRTBD-OsGRF4. Transient transactivation assays were performed using rice protoplasts as described elsewhere^36. […]

OsGRF4 mRNA = OsGRF4 mRNA abundance, effect of GA and PAC; type: in vivo, rice; conditions: FIG. 15e, f
From the text: In the absence of GA, SLR1 inhibits OsGRF4-OsGIF1 promotion of OsGRF4 transcription. In the presence of GA, SLR1 is destroyed via proteasome-mediated degradation, this promoting OsGRF4-OsGIF1 activated OsGRF4 transcription.
Total RNAs were extracted from different rice plant organs using the TRIzol reagent (Invitrogen), and then treated with RNase-free DNase I (Invitrogen) according to the manufacturer's protocol. Full-length cDNA was then reverse-transcribed using a cDNA synthesis kit (TRANSGEN, AE311). Subsequent qRT-PCR was performed according to the manufacturer's instructions (TRANSGEN, AQ101), using three independent RNA preparations as biological replicates. Rice Actin2 gene transcripts were used as a reference.

| SMILES | 15NH4+ uptake rate [1] | OsAMT1.1 and OsGS1.2 mRNA abundances [2] | ChIP-PCR enrichment of GCGG motif-containing fragments from the OsAMT1.1 and OsGS1.2 promoters [3] | effect on the PAC-caused reduction of 15NH4+ uptake ([1]; GA together with PAC) | GS activity (Glutamine synthase) | OsGRF4-OsGIF1 complex activation of transcription from pOscycA1;1 and pOscdc2Os-3 promoters [4] | OsGRF4 mRNA abundance (OsGRF4 mRNA) |
| --- | --- | --- | --- | --- | --- | --- | --- |
| CC(C)(C)[C@@H](O)[C@@H](Cc1ccc(Cl)cc1)n1cncn1 (racemic) [PAC, paclobutrazol] | reduces | reduced | reduces |  |  |  |  |
| C=C1C[C@]23C[C@@]1(O)CC[C@H]2[C@@]12C=C[C@H](O)[C@@](C)(C(=O)O1)[C@H]2[C@@H]3C(=O)O [GA, Gibberellic acid] | promotes | increased | promotes | abolishes this effect | promotes | promotes | GA-regulated |

— US11873499B2, “Methods of increasing nutrient use efficiency” (Institute of Genetics and Developmental Biology Chinese …, priority 2018, dated 2024)
